Laboratory results published in ChEMBL document CHEMBL5576061, “The role of the methoxy group in approved drugs” (Eur J Med Chem, 2024).

System: Hepatitis C virus
Experiment: Antiviral activity against Hepatitis C virus genotype 1b infected in human Huh-7 cells assessed as reduction in viral infection
Assay type: functional, organism-based, Hepacivirus hominis
Details: not given

| EC50 [nM] | SMILES |
| --- | --- |
| 24 | COc1ccc2c(c1)[C@@H]1C[C@]1(C(=O)N1C[C@@H](C)O[C@@H](C)C1)Cn1c-2c(C2CCCCC2)c2ccc(C(=O)NS(=O)(=O)N(C)C)cc21 |

System: Human immunodeficiency virus 1
Experiment: Antiviral activity against HIV-1 HTLV-IIIB infected in human MT4 cells assessed as reduction in virus induced cytopathic effect by immunofluorescence assay
Assay type: functional, organism-based
Details: Human immunodeficiency virus 1, MT4

| EC50 [nM] | SMILES |
| --- | --- |
| 19 | C=C[C@@H]1C[C@]1(NC(=O)[C@@H]1C[C@@H](Oc2ncc(OC)c3ccccc23)CN1C(=O)[C@@H](NC(=O)OC(C)(C)C)C(C)(C)C)C(=O)NS(=O)(=O)C1CC1 |
| 6 | C=C[C@@H]1C[C@]1(NC(=O)[C@@H]1C[C@@H](Oc2ncc(OC)c3ccc(Cl)cc23)CN1C(=O)[C@@H](NC(=O)OC(C)(C)C)C(C)(C)C)C(=O)NS(=O)(=O)C1CC1 |
| 20 | C=C[C@@H]1C[C@]1(NC(=O)[C@@H]1C[C@@H](Oc2nccc3ccc(Cl)cc23)CN1C(=O)[C@@H](NC(=O)OC(C)(C)C)C(C)(C)C)C(=O)NS(=O)(=O)C1CC1 |
| 60 | C=C[C@@H]1C[C@]1(NC(=O)[C@@H]1C[C@@H](Oc2nccc3ccccc23)CN1C(=O)[C@@H](NC(=O)OC(C)(C)C)C(C)(C)C)C(=O)NS(=O)(=O)C1CC1 |

System: Hepatitis C virus
Experiment: Antiviral activity against Hepatitis C virus genotype 1a infected in human Huh-7 cells assessed as reduction in viral infection
Assay type: functional, organism-based, Hepacivirus hominis
Details: not given

| EC50 [nM] | SMILES |
| --- | --- |
| 12 | COc1ccc2c(c1)[C@@H]1C[C@]1(C(=O)N1C[C@@H](C)O[C@@H](C)C1)Cn1c-2c(C2CCCCC2)c2ccc(C(=O)NS(=O)(=O)N(C)C)cc21 |

Molecular target: Human immunodeficiency virus type 1 integrase (Human immunodeficiency virus 1, UniProt Q7ZJM1)
Sequence (Q7ZJM1 whole entry): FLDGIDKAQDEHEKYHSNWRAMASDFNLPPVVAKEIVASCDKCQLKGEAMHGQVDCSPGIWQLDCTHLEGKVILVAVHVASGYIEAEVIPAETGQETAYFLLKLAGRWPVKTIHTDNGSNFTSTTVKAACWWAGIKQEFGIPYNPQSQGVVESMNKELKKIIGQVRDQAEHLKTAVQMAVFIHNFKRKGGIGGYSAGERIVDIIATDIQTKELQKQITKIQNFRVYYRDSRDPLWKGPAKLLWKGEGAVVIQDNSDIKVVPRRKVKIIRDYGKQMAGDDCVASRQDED
Experiment: Inhibition of HIV-1 integrase
Details: not given

| IC50 [nM] | SMILES |
| --- | --- |
| 2 | C=C[C@@H]1C[C@]1(NC(=O)[C@@H]1C[C@@H](Oc2ncc(OC)c3ccccc23)CN1C(=O)[C@@H](NC(=O)OC(C)(C)C)C(C)(C)C)C(=O)NS(=O)(=O)C1CC1 |
| 12 | C=C[C@@H]1C[C@]1(NC(=O)[C@@H]1C[C@@H](Oc2nccc3ccc(Cl)cc23)CN1C(=O)[C@@H](NC(=O)OC(C)(C)C)C(C)(C)C)C(=O)NS(=O)(=O)C1CC1 |
| 7 | C=C[C@@H]1C[C@]1(NC(=O)[C@@H]1C[C@@H](Oc2nccc3ccccc23)CN1C(=O)[C@@H](NC(=O)OC(C)(C)C)C(C)(C)C)C(=O)NS(=O)(=O)C1CC1 |

Molecular target: not listed separately
Experiment: Inhibition of tyrosine kinase (unknown origin)
Parameters: species or system Homo sapiens
Details: not given

| IC50 [nM] | SMILES |
| --- | --- |
| 30 | COc1cc2ncc(C#N)c(Nc3ccc(Cl)cc3Cl)c2cc1OC |
| 1200 | CCOc1cc(Nc2c(C#N)cnc3cc(OC)c(OC)cc23)c(Cl)cc1Cl |
| 0.8 | COc1cc(Nc2c(C#N)cnc3cc(OCCCN4CCOCC4)c(OC)cc23)c(Cl)cc1Cl |
| 320 | COc1ccc2ncc(C#N)c(Nc3ccc(Cl)cc3Cl)c2c1 |
| 200 | COc1ccc2c(Nc3ccc(Cl)cc3Cl)c(C#N)cnc2c1 |
| 4.3 | COc1cc(Nc2c(C#N)cnc3cc(OC)c(OC)cc23)c(Cl)cc1Cl |
| 190 | COc1cc2ncc(C#N)c(Nc3cc(O)c(Cl)cc3Cl)c2cc1OC |
| > 1000 | N#Cc1cnc2ccccc2c1Nc1ccc(Cl)cc1Cl |
| 1.2 | COc1cc(Nc2c(C#N)cnc3cc(OCCCN4CCN(C)CC4)c(OC)cc23)c(Cl)cc1Cl [BOSUTINIB] |
| > 1000 | N#Cc1cnc2cc(O)c(O)cc2c1Nc1ccc(Cl)cc1Cl |

Molecular target: T1, Non-receptor tyrosine-protein kinase TYK2 (Homo sapiens, UniProt P29597)
T1 sequence (P29597 whole entry): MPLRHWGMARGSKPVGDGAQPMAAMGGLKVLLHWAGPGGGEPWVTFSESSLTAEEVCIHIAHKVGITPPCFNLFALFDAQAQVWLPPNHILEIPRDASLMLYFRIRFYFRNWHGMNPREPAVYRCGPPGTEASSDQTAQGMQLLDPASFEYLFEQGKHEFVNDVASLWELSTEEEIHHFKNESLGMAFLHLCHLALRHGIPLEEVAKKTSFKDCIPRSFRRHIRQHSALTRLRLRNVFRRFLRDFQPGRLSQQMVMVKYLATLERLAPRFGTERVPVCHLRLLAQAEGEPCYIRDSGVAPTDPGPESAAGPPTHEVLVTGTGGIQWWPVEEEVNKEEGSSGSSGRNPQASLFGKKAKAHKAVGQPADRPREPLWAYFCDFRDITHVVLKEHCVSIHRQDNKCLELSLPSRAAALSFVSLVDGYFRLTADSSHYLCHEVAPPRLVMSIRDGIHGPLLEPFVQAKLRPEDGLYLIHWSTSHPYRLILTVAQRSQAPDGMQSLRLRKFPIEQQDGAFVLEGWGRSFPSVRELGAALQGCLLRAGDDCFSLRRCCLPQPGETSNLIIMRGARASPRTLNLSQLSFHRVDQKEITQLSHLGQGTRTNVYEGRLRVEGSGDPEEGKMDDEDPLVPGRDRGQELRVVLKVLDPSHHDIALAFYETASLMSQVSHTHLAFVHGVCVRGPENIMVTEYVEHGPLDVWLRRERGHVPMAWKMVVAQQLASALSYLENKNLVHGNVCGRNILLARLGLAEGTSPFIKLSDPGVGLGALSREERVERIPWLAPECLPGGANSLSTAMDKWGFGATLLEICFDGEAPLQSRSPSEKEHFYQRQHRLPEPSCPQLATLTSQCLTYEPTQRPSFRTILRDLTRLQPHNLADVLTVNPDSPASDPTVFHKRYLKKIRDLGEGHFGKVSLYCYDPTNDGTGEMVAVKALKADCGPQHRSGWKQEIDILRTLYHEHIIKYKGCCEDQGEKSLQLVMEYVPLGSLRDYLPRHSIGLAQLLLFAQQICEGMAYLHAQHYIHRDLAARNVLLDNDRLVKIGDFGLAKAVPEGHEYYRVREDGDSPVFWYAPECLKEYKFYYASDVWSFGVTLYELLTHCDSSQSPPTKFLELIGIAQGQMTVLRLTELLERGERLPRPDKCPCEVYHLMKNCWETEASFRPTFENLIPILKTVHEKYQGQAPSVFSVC
Experiment: Inhibition of TYK2 (unknown origin)
Details: not given

| IC50 [nM] | SMILES |
| --- | --- |
| 0.3 | [2H]C([2H])([2H])NC(=O)c1cnc(NC(=O)C2CC2)cc1Nc1cccc(-c2ncn(C)n2)c1OC |
| 0.7 | CNC(=O)c1cnc(NC(=O)C2CC2)cc1Nc1cccc(-c2ncn(C)n2)c1OC |
| 0.4 | CNC(=O)c1cnc(Nc2cc(C)c(F)cn2)cc1Nc1cccc(-c2ncn(C)n2)c1OC |

System: Human immunodeficiency virus 1
Experiment: Antiviral activity against HIV-1 infected in human MT4 cells assessed as inhibition of viral growth
Assay type: functional, organism-based
Details: Human immunodeficiency virus 1, MT4

| SMILES | EC50 [nM] |
| --- | --- |
| O=C(O)c1cnc2ccc(Cc3ccccc3)cc2c1O | > 30000 |
| O=C(O)c1cn(CCO)c2ccc(Cc3cccc(Cl)c3F)cc2c1=O | 76.3 |
| O=C(O)c1c[nH]c2ccc(Cc3cccc(Cl)c3F)cc2c1=O | 805 |

Molecular target: T1, Non-receptor tyrosine-protein kinase TYK2
Experiment: Inhibition of TYK2 (unknown origin) (575 to 869 residues) by HTRF assay
Details: not given

| IC50 [nM] | SMILES |
| --- | --- |
| 0.6 | CNC(=O)c1cnc(Nc2ccc(F)cn2)cc1Nc1cccc(C(=O)NC)c1OC |
| 44 | CNC(=O)c1cccc(Nc2cc(Nc3ccc(F)cn3)ncc2C(=O)NC)c1 |

System: Human immunodeficiency virus 1
Experiment: Antiviral activity against HIV-1 3B infected in human MT4 cells assessed as reduction in virus-induced cytopathic effect incubated for 4 days by MTT assay
Assay type: functional, organism-based
Details: Human immunodeficiency virus 1, 3B, MT4, 96 h

| SMILES | EC50 [nM] |
| --- | --- |
| CNC(=O)c1ncc(OC)c2c(C(=O)C(=O)N3CCN(C(=O)c4ccccc4)CC3)c[nH]c12 | 0.28 |
| CNC(=O)c1ccc(OC)c2c(C(=O)C(=O)N3CCN(C(=O)c4ccccc4)CC3)c[nH]c12 | 0.76 |
